In US9000125B2, “Approach to treat intraocular hypertension” (priority 2006, dated 2015):
No end group written: not given here.

Test system: intraocular pressure (IOP) of the rabbit eye
Test: IOP (TonoPen) in anaesthetized normal NZW rabbits after deposition/injection beneath the Tenon's capsule
Conditions: Example 9; 50 or 100 μg below the Tenon's capsule

CHSKTR [CHSKTR]
local or systemic side effects: without inducing any local or systemic side effects
